Measured values: PMC4657468, “Impaired uptake of conjugated bile acids and hepatitis b virus pres1-binding in na^+-taurocholate cotransporting polypeptide knockout mice” (Hepatology (Baltimore, Md.), 2015)
Like-named read-outs stand apart in the source and are kept apart here.

Tests used:
[1] = for Serum TCA elimination t½: intravenous bolus 150 μmol TCA/kg with trace tritium-labeled TCA after gallbladder cannulation, one-phase decay, n = 5
Method: Differences between groups were analyzed using a two-tailed Student t test. […] Results were considered statistically significant at P < 0.05.

[2] = molecular target: T1, NTCP (Mus musculus, UniProt O08705); conditions: 1 μM Myrcludex B, 30 min preincubation, WT PMHs, 10 μM TCA, 1 minute
T1 sequence (O08705 1-362): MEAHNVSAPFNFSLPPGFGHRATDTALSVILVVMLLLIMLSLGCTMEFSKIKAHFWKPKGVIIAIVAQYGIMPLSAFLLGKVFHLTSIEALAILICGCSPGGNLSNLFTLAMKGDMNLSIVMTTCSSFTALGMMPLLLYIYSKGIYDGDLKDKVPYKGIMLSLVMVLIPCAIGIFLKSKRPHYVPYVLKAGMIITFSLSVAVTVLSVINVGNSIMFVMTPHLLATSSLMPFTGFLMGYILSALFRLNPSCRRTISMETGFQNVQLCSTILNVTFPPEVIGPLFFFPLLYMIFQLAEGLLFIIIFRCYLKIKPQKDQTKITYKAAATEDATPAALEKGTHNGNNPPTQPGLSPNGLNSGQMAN
From the text: (§1) Bars represent the mean ± SEM for two independent experiments, each performed in triplicate. *P < 0.05. (B) Total serum BA concentrations in male and female WT and Slc10a1^−/− (KO) mice. Data are given as mean ± SEM on a ^10log scale for seven to 16 mice in each group, quantified using the total BA assay. Serum composition of (C) conjugated and (D) unconjugated BA species as quantified using high-pressure liquid chromatography. […] Unconjugated BA (U-BA) concentrations are the sum of ω-muricholic acid, α-muricholic acid, β-muricholic acid, cholic acid, UDCA, chenodeoxycholic acid, and DCA. Data are given as mean ± SEM on a ^10log scale for three to six mice in each group. *P < 0.05 (compared to WT levels). […] Conjugated BA (dark gray) and unconjugated BA (light gray) species are shown as a percentage of total, as quantified using high-pressure liquid chromatography. (F) Total serum BA levels in relation to body weights of WT (open dots) and KO (black dots) 8-week-old mice (n – 11–14). […]
(§2) mouse NTCP antibody in block ing buffer f or 1 hour. Af ter washings, the slides were incubated with goat anti-rabbit Alexa 568 IgG. Images were captured with a Leica SP8X […]
(§3) Primary hepatocyte isolation and sandwich culture
(§4) Primary mouse hepatocytes (PMHs) were isolated from wild- type and Slc10a1 -/- mice by a 2-step collagenase perfusion method. […]

[3] = tested on: NTCP; conditions: at high concentrations; cited from earlier work
From the text: (§5) During and after a meal, bile acids (BAs) are released into the small intestine, where they facilitate the absorption of dietary fat and fat-soluble vitamins.[1] The majority of BAs are reabsorbed in the terminal ileum and transported back to the liver through the portal circulation. At the basolateral membranes of the hepatocytes, BAs are taken up from the portal circulation, extruded across the canalicular hepatocyte membrane, and transported to the gallbladder to complete the enterohepatic circulation.[2] Conjugated BAs are transported across the basolateral hepatic membrane through a sodiu ...

[4] = tested on: hepatitis B virus; conditions: cited from earlier work
From the text: as §5

[5] = tested on: Slc10a1−/− PMHs; type: cell-based, mouse; conditions: 1 μM Myrcludex B, sodium-dependent as well as sodium-free conditions
From the text: as §1, §2, §3, §4

## C[C@H](CCC(=O)NCCS(=O)(=O)O)[C@H]1CC[C@H]2[C@@H]3[C@H](O)C[C@@H]4C[C@H](O)CC[C@]4(C)[C@H]3C[C@H](O)[C@]12C [TCA, taurocholic acid]
[1]; WT mice
  Serum TCA elimination t½: 1.5 min
[1]; hypercholanemic Slc10a1−/− mice, intravenous bolus 150 μmol TCA/kg, shortly after injection
  Lethality of the high dose of TCA: lethal
[1]; normocholanemic Slc10a1−/− mice
  Serum TCA elimination t½: 5.3 min

## Myrcludex B
[2]; NMDG buffer
  Effect on TCA uptake under sodium-free conditions: no effect
[2]; sodium-containing buffer
  Effect on sodium-dependent TCA uptake: abrogated sodium-dependent TCA uptake
[3]
  NTCP-mediated BA uptake: inhibits NTCP-mediated BA uptake at high concentrations
[4]
  Virus entry mediated by NTCP: blocked
[5]
  Effect on TCA uptake in Slc10a1−/− PMHs: unaffected
